Test results reported in PMC10458893, “Design of Protegrin-1 Analogs with Improved Antibacterial Selectivity” (Pharmaceutics, 2023).
Converted amounts (≈) assume the structure as drawn. Where two headings read alike, the source gives them in different places. Positions of bridges follow the written chain, without caps; N, C: chain ends. Residues, ends and D or L forms follow the SMILES beside them.

Tests used:
[1] = test system: human keratinocyte cell line (HaCaT); test: Cytotoxicity MTT assay; assay type: cell-based
Description: In order to evaluate the cytotoxicity of the peptides against a human keratinocyte cell line (HaCaT, Cat. No. 300493) (Cell Lines Service, Köln, Germany), the colorimetric 3-(4,5-dimethylthiazol-2-yl)-2,5-diphenyltetrazolium bromide (MTT) dye reduction assay was performed, as described in a previous publication. Wells containing no peptide were used as a 100% survival control. Each peptide was tested in two separate experiments to ensure the reliability of the results.

[2] = test system: M. luteus B-1314; assay type: cell-based, Micrococcus luteus; conditions: B-1314, 24 h
Description: (§1) The antimicrobial activity of the peptides was determined using two-fold serial dilutions in sterile 96-well flat-bottom polystyrene microplates (Eppendorf, Hamburg, Germany) (Cat. No. 0030730011), as previously described. The following strains of bacteria were used: E. coli ATCC 25922, E. coli ML35p (ATCC collection), E. coli BW 25113 (Keio collection), Pseudomonas aeruginosa PAO1 (ATCC collection), P. aeruginosa ATCC 27853, Klebsiella pneumoniae ATCC 700603, Staphylococcus aureus 209P (ATCC collection), S. aureus ATCC 29213, and Micrococcus luteus B-1314 (VKM collection). Acinetobacter baumannii (strain XDR CI 2675) was provided by the I.M. Sechenov First Moscow State Medical University hospital. After a 24 h incubation period, the metabolic activity of the bacteria was assessed by adding 20 µL of a redox indicator, resazurin (Sigma-Aldrich, St. Louis, MO, USA), at a concentration of 0.1 mg/mL, to the wells. The plate was then incubated for a further two hours. The minimum inhibitory concentration (MIC) was determined as the lowest concentration of the peptide at which no color change in the resazurin indicator was observed. The results were presented as median values, which were determined based on at least three independent experiments carried out in triplicate.

[3] = test system: K. pneumoniae ATCC 700603; assay type: cell-based, Klebsiella pneumoniae; conditions: ATCC 700603, 24 h
Description: as §1

[4] = test system: E. coli ATCC 25922; assay type: cell-based; conditions: ATCC 25922, 24 h
Description: as §1

[5] = test system: P. aeruginosa PAO1; assay type: cell-based, Pseudomonas aeruginosa; conditions: PAO1, 24 h
Description: as §1

[6] = test system: P. aeruginosa ATCC 27853; assay type: cell-based, Pseudomonas aeruginosa; conditions: ATCC 27853, 24 h
Description: as §1

[7] = test system: S. aureus 209P; assay type: cell-based, Staphylococcus aureus; conditions: 24 h
Description: as §1

[8] = test system: S. aureus ATCC 29213; assay type: cell-based, Staphylococcus aureus; conditions: ATCC 29213, 24 h
Description: as §1

[9] = test system: freshly isolated human erythrocytes (hRBCs); test: Hemolysis assay (hemoglobin release); assay type: cell-based
Text: To assess the hemolytic activity of the compounds, freshly isolated human erythrocytes (hRBCs) were used according to the methodology described in a previous study. Melittin was used as a positive peptide control that induces significant hemolysis. Isotonic phosphate buffer (PBS) served as a negative control, while 0.1% Triton X-100 solution was used as a control for complete hemolysis.

[10] = test system: Acinetobacter baumannii (strain XDR CI 2675); assay type: cell-based
Description: as §1

[11] = test system: E. coli ML35p; assay type: cell-based
Description: as §1

[12] = test system: E. coli BW 25113; assay type: cell-based; conditions: two-fold serial dilutions, 24 h incubation, resazurin read-out; median of at least three independent experiments in triplicate
Description: as §1

[13] = test system: all the test strains; assay type: cell-based; conditions: geometric mean over the 10 test strains
Description: as §1

[14] = strain XDR CI 2675, two-fold serial dilutions, 24 h incubation, resazurin read-out, median of at least three independent experiments in triplicate
[15] = two-fold serial dilutions, 24 h incubation, resazurin read-out, median of at least three independent experiments in triplicate

SMILES	Cell Viability, % (128 μM) ([1]; 18 h, 128)	MIC, M. luteus B-1314 [2] [µM]	MIC, K. pneumoniae ATCC 700603 [3] [µM]	MIC, E. coli ATCC 25922 [4] [µM]	MIC, P. aeruginosa PAO1 [5] [µM]	MIC, P. aeruginosa ATCC 27853 [6] [µM]	MIC, S. aureus 209P [7] [µM]	MIC, S. aureus ATCC 29213 [8] [µM]	Hemolytic activity, % (64 μM) ([9]; red cells of human, 64)	Cell Viability, % (128 μM) ([1]; 128 μM peptide, HaCaT, MTT assay, 18 h incubation (legend; text says 24 h), mean ± SD of two independent experiments)	Hemolytic activity, % (64 μM) ([9]; 64 μM peptide, 1.5 h incubation, hemoglobin release, fresh hRBCs, 0.1% Triton X-100 = complete hemolysis, mean ± SD of two independent experiments)	MIC, A. baumannii [10, 14] [µM]	MIC, E. coli ML35p [11, 15] [µM]	MIC, E. coli BW 25113 [12] [µM]	MIC (GM), geometric mean of the peptide's MICs against all the test strains [13] [µM]	MIC, A. baumannii ([10]; strain XDR CI 2675, 24 h) [µM]	MIC, E. coli ML35p ([11]; ML35p, 24 h) [µM]
CC(C)C[C@H](NC(=O)CNC(=O)CNC(=O)[C@@H](N)CCCNC(=N)N)C(=O)N[C@H]1CSSC[C@@H](C(=O)N[C@H](C(=O)NCC(=O)N[C@@H](CCCNC(=N)N)C(N)=O)C(C)C)NC(=O)[C@H](C(C)C)NC(=O)[C@@H]2CSSC[C@H](NC(=O)[C@H](Cc3ccc(O)cc3)NC1=O)C(=O)N[C@@H](CCCNC(=N)N)C(=O)NCC(=O)N[C@@H](CCCNC(=N)N)C(=O)N[C@@H](Cc1ccccc1)C(=O)N2 [Iseganan, reference compound] (H-RGGLCYCRGRFCVCVGR-NH2; disulfide 5-14, 7-12)	19.5 (±7.18) %	0.5 (≈ 0.95 µg/mL)	4 (≈ 7.6 µg/mL)	0.5 (≈ 0.95 µg/mL)	8 (≈ 15.2 µg/mL)	4 (≈ 7.6 µg/mL)	2 (≈ 3.8 µg/mL)	4 (≈ 7.6 µg/mL)	99.6 (±0.54) %	–	–	–	–	–	–	–	–
CC[C@H](C)[C@H](NC(=O)CN)C(=O)NCC(=O)N[C@@H](C)C(=O)N[C@H](C(=O)N[C@@H](CC(C)C)C(=O)N[C@@H](CCCCN)C(=O)N[C@H](C(=O)N[C@@H](CC(C)C)C(=O)N[C@H](C(=O)N[C@H](C(=O)NCC(=O)N[C@@H](CC(C)C)C(=O)N1CCC[C@H]1C(=O)N[C@@H](C)C(=O)N[C@@H](CC(C)C)C(=O)N[C@H](C(=O)N[C@@H](CO)C(=O)N[C@@H](Cc1c[nH]c2ccccc12)C(=O)N[C@H](C(=O)N[C@@H](CCCCN)C(=O)N[C@@H](CCCNC(=N)N)C(=O)N[C@@H](CCCCN)C(=O)N[C@@H](CCCNC(=N)N)C(=O)N[C@@H](CCC(N)=O)C(=O)N[C@@H](CCC(N)=O)C(N)=O)[C@@H](C)CC)[C@@H](C)CC)[C@@H](C)O)[C@@H](C)O)C(C)C)C(C)C [Melittin, reference compound]	–	–	–	–	–	–	–	–	–	4.1 (± 4.07) %	96.0 (±7.12) %	–	–	–	–	–	–
CC(C)C[C@H](NC(=O)[C@H](CCCNC(=N)N)NC(=O)CNC(=O)CNC(=O)[C@@H](N)CCCNC(=N)N)C(=O)N[C@H]1CSSC[C@@H](C(=O)N[C@H](C(=O)NCC(=O)N[C@@H](CCCNC(=N)N)C(=O)O)C(C)C)NC(=O)[C@H](C(C)C)NC(=O)[C@@H]2CSSC[C@H](NC(=O)[C@H](Cc3ccc(O)cc3)NC1=O)C(=O)N[C@@H](CCCNC(=N)N)C(=O)N[C@@H](CCCNC(=N)N)C(=O)N[C@@H](CCCNC(=N)N)C(=O)N[C@@H](Cc1ccccc1)C(=O)N2 [PG-1, Protegrin-1] (H-RGGRLCYCRRRFCVCVGR-OH; disulfide 6-15, 8-13; N-terminus and C-terminus assumed)	6.1 (±2.07) %	0.25 (≈ 0.539 µg/mL)	1 (≈ 2.16 µg/mL)	0.5 (≈ 1.08 µg/mL)	0.5 (≈ 1.08 µg/mL)	0.25 (≈ 0.539 µg/mL)	0.5 (≈ 1.08 µg/mL)	1 (≈ 2.16 µg/mL)	96.3 (±10.72) %	–	–	0.25 (≈ 0.539 µg/mL)	0.25 (≈ 0.539 µg/mL)	0.125 (≈ 0.27 µg/mL)	0.4	–	–
CC(C)[C@H](NC(=O)[C@@H]1CSSC[C@H](NC(=O)[C@H](C)NC(=O)[C@H](CCCNC(=N)N)NC(=O)CNC(=O)CNC(=O)[C@@H](N)CCCNC(=N)N)C(=O)N[C@@H](Cc2ccc(O)cc2)C(=O)N[C@H]2CSSC[C@H](NC(=O)[C@H](Cc3ccccc3)NC(=O)[C@H](CCCNC(=N)N)NC(=O)[C@H](CCCNC(=N)N)NC(=O)[C@H](CCCNC(=N)N)NC2=O)C(=O)N[C@@H](C)C(=O)N1)C(=O)NCC(=O)N[C@@H](CCCNC(=N)N)C(=O)O [[L5A,V14A]] (H-RGGRACYCRRRFCACVGR-OH; disulfide 6-15, 8-13; N-terminus and C-terminus assumed)	38.3 (± 7.19) %	4 (≈ 8.35 µg/mL)	8 (≈ 16.7 µg/mL)	0.5 (≈ 1.04 µg/mL)	1 (≈ 2.09 µg/mL)	1 (≈ 2.09 µg/mL)	4 (≈ 8.35 µg/mL)	>32	4.2 (±1.08) %	–	–	–	–	0.5 (≈ 1.04 µg/mL)	–	0.25 (≈ 0.522 µg/mL)	0.5 (≈ 1.04 µg/mL)
CC(C)[C@@H]1NC(=O)[C@@H]2CSSC[C@H](NC(=O)[C@H](Cc3ccc(O)cc3)NC(=O)[C@@H](NC(=O)[C@H](C)NC(=O)[C@H](CCCNC(=N)N)NC(=O)CNC(=O)CNC(=O)[C@@H](N)CCCNC(=N)N)CSSC[C@@H](C(=O)N[C@@H](C)C(=O)NCC(=O)N[C@@H](CCCNC(=N)N)C(=O)O)NC1=O)C(=O)N[C@@H](CCCNC(=N)N)C(=O)N[C@@H](CCCNC(=N)N)C(=O)N[C@@H](CCCNC(=N)N)C(=O)N[C@@H](Cc1ccccc1)C(=O)N2 [[L5A,V16A]] (H-RGGRACYCRRRFCVCAGR-OH; disulfide 6-15, 8-13; N-terminus and C-terminus assumed)	17.0 (± 2.18) %	4 (≈ 8.35 µg/mL)	8 (≈ 16.7 µg/mL)	0.5 (≈ 1.04 µg/mL)	1 (≈ 2.09 µg/mL)	1 (≈ 2.09 µg/mL)	4 (≈ 8.35 µg/mL)	>32	3.6 (±1.72) %	–	–	–	–	0.5 (≈ 1.04 µg/mL)	–	0.25 (≈ 0.522 µg/mL)	0.5 (≈ 1.04 µg/mL)
CC(C)C[C@H](NC(=O)[C@H](CCCNC(=N)N)NC(=O)CNC(=O)CNC(=O)[C@@H](N)CCCNC(=N)N)C(=O)N[C@H]1CSSC[C@@H](C(=O)N[C@@H](CCCNC(=N)N)C(=O)NCC(=O)N[C@@H](CCCNC(=N)N)C(=O)O)NC(=O)[C@H](C(C)C)NC(=O)[C@@H]2CSSC[C@H](NC(=O)[C@H]([C@@H](C)O)NC1=O)C(=O)N[C@@H](CCCNC(=N)N)C(=O)N[C@@H](CCCNC(=N)N)C(=O)N[C@@H](CCCNC(=N)N)C(=O)N[C@@H](Cc1ccccc1)C(=O)N2 [[Y7T,V16R]] (H-RGGRLCTCRRRFCVCRGR-OH; disulfide 6-15, 8-13; N-terminus and C-terminus assumed)	72.8 (± 5.46) %	4 (≈ 8.61 µg/mL)	>32	8 (≈ 17.2 µg/mL)	>32	>32	>32	>32	1.4 (±0.66) %	–	–	–	–	8 (≈ 17.2 µg/mL)	–	4 (≈ 8.61 µg/mL)	4 (≈ 8.61 µg/mL)
CC(C)C[C@H](NC(=O)[C@H](CCCNC(=N)N)NC(=O)CNC(=O)CNC(=O)[C@@H](N)CCCNC(=N)N)C(=O)N[C@H]1CSSC[C@@H](C(=O)N[C@H](C(=O)NCC(=O)N[C@@H](CCCNC(=N)N)C(=O)O)C(C)C)NC(=O)[C@H](C(C)C)NC(=O)[C@@H]2CSSC[C@H](NC(=O)[C@H]([C@@H](C)O)NC1=O)C(=O)N[C@@H](CCCNC(=N)N)C(=O)N[C@@H](CCCNC(=N)N)C(=O)N[C@@H](CCCNC(=N)N)C(=O)N[C@@H](Cc1ccccc1)C(=O)N2 [[Y7T]] (H-RGGRLCTCRRRFCVCVGR-OH; disulfide 6-15, 8-13; N-terminus and C-terminus assumed)	15.0 (± 1.62) %	4 (≈ 8.38 µg/mL)	8 (≈ 16.8 µg/mL)	1 (≈ 2.09 µg/mL)	2 (≈ 4.19 µg/mL)	2 (≈ 4.19 µg/mL)	16 (≈ 33.5 µg/mL)	16 (≈ 33.5 µg/mL)	4.0 (±2.54) %	–	–	0.5 (≈ 1.05 µg/mL)	0.5 (≈ 1.05 µg/mL)	0.5 (≈ 1.05 µg/mL)	–	–	–
